Patent US5444089A, “Neutral lipids from endosperm of Job's tears” (Li; Da P., priority 1992, dated 1995)

What was measured:
sarcoma (S-180) = test: Anti-tumor effect on sarcoma (S-180) in vivo; parameters: species or system mice
Protocol: Sarcoma (S-180) tissues growing luxuriantly were prepared to be a cell suspension with physical saline 1:3(w/v). Mice were divided into groups at random the next day and were administered with doses of NLEJ emulsion of 25 ml/kg iv×7 (qd), doses of cyclophosphamide of 30 mg/kg ip×2 (second and fourth), doses of mitoxantrone (DHAD) of 2 mg/kg ip×2 (second and fourth), and doses of mitomycin of 1.5 mg/kg ip×2 (second and fourth). Tumor tissues from all treatments were sampled and weighed to calculate tumor inhibition ratios 14 days after inoculating.

human hepatoma (QGY) = test: Growth of human hepatoma (QGY) in nude mice; format: in vivo, human (nude mouse); conditions: 30 mg/kg ip daily 7 days
Protocol: Hepatoma (QGY) tissues growing luxuriantly were homogenized in physical saline (1:4) and prepared as a suspension. Each nude mouse was inoculated subcutaneously with 0.2 ml of the suspension at its armpit. The nude mice were divided into groups at random the next day. The doses of NLEJ emulsion were 25 ml/kg, 12.5 ml/kg and 6.25 ml/kg. The emulsion was administrated intravenously at the tail of the nude mouse every day for 10 days. One group of mice were administered with cyclophosphamide (CTX) of a dose of 30 mg/kg intraperitoneally every day for 7 days. The nude mice of the control group were administered with a similar emulsion just absent the NLEJ (blank emulsion) at a dose of 25 ml/kg intravenously at the tail of the nude mouse every day for 10 days. Tumor tissues of all nude mice were sampled and weighed 30 days after inoculating.

leukocyte [1] = test: Protection on decrease of leukocyte induced by cyclophosphamide chemotherapy; format: in vivo, Swiss mice; conditions: CTX 45 mg/kg ip × 1, 5, 9
Protocol: (§1) 80 Swiss mice were divided into eight groups at random, were administered with cyclophosphamide at 45 mg/kg ip×3 (second, sixth and tenth), or harringtonine (HRTN) at 1 mg/kg ip×3 (second, sixth and tenth). To each of two of the medicine groups were administered NLEJ emulsion at the same time, at doses of 2.4 ml/kg and 6.25 ml/kg iv×7 (every day). At the beginning and on the fourth day of each administration, blood was sampled from the angle of each mouse's eye, and leukocytes of the blood were counted.

[2] = tested on: Walaer carcinosarcoma (solid) W256; test: Anti-tumor effect on Walaer carcinosarcoma (solid) W256 in vivo; parameters: species or system rat
Protocol: Ascites Walaer carcinosarcoma (solid) W256 tissues growing luxuriantly were digested to be a cell suspension. The cell suspension was regulated to have a 1-2×10^7 /ml cell density. 0.2 ml of the suspension was inoculated under the skin of armpit of each rat. The rats were divided into groups at random the next day and were administered with doses of NLEJ emulsion of 20 ml/kg, 10 ml/kg, 5 ml/kg iv×10 (qd), and doses of […], the doses of cyclophosphamide were 30 mg/kg iv×7 (qd), mg/kg iv×2 (third and fifth). Tumor tissues from all treatments were sampled and weighed to calculate tumor inhibition ratios 14 days after inoculating.

melanoma (B16) = test: Metastasis of melanoma (B16) in lung in vivo; parameters: species or system C57BL/6 mouse; conditions: 100 mg/kg ip × 2 (3, 5)
Protocol: Melanoma B16 tissues growing at logarithmic stage were digested with 0.15% trypsin, and 0.2 ml suspension of 2.5×10^5 cells/ml in RPMI 1640 medium from the tissues was inoculated intravenously into the tail of each C57BL/6 mouse. Mice were divided into groups at random 3 days after inoculating and were administered different emulsions. Mice were killed 21 days after inoculating, and metastasized colonies of melanoma in mouse's lung were counted to calculate the inhibition ratio and compare the different effects of different administrations of NLEJ emulsion on metastasis of malanoma in lung. 100 mg/kg cyclophosphamide (CTX) was administered in the same way to compare with NLEJ emulsion.

[3] = tested on: human small cell lung cancer (SPC); test: Growth of human small cell lung cancer (SPC) in nude mice; format: in vivo, human (nude mouse); conditions: 40 mg/kg iv×10 (qd)
Protocol: SPC tumor tissues growing luxuriantly were cut into pieces of 2 mm, one of the pieces was inoculated under the skin of the armpit of each nude mouse. Nude mice were divided into groups at random the next day and one group was administered with the NLEJ emulsion at a dose of 25 ml/kg iv×10 (qd), one group of mice was administered with dacarbazine (DTIC) at a dose of 40 mg/kg iv×10 (qd), and the nude mice of the control group were administered with blank emulsion at a dose of 25 ml/kg iv×10 (qd). Tumor tissues of all nude mice were sampled and weighed 30 days after inoculating.

leukocyte [4] = test: Protection on decrease of leukocyte induced by harringtonine chemotherapy; format: in vivo, Swiss mice; conditions: HRTN 1 mg/kg ip × 1, 5, 9
Protocol: as §1

[5] = tested on: mouse Ehrlich ascites tumor; conditions: cited from earlier work

**Q.** With `O=P1(N(CCCl)CCCl)NCCCO1` (stereo not shown) [CTX, cyclophosphamide] as the compound, how does the “Inhibition (%)” value (sarcoma (S-180); 30 mg/kg ip × 2 (1, 3)) read?
**A.** 39.4%

**Q.** And the Inhibition (%) (human hepatoma (QGY))?
**A.** 91.00%

**Q.** What about the Tumor (human hepatoma (QGY)) of the same compound?
**A.** 0.28 ± 0.08 g

**Q.** And the Leucocyte number (leukocyte [1]; time 0)?
**A.** 62 × 100/mm^3

**Q.** And the Leucocyte number (leukocyte [1]; time 3)?
**A.** 49 × 100/mm^3

**Q.** And the Leucocyte number (leukocyte [1]; time 6)?
**A.** 45 × 100/mm^3

**Q.** And the Leucocyte number (leukocyte [1]; time 9)?
**A.** 41 × 100/mm^3

**Q.** What about the Leucocyte number (leukocyte [1]; time 12) of the same compound?
**A.** 41 × 100/mm^3

**Q.** What about the Leucocyte number (leukocyte [1]; time 15) of the same compound?
**A.** 42 × 100/mm^3

**Q.** What about the Leucocyte number (leukocyte [1]; time 18) of the same compound?
**A.** 45 × 100/mm^3

**Q.** And the Leucocyte number (leukocyte [1]; time 21)?
**A.** 47 × 100/mm^3

**Q.** And the Leucocyte number (leukocyte [1]; time 24)?
**A.** 49 × 100/mm^3

**Q.** And the “Inhibition (%)” value ([2]; 10 mg iv × 2)?
**A.** 38.58%

**Q.** And the “Weight (tumor)” value ([2]; 10 mg iv × 2)?
**A.** 2.07 ± 1.11 g

**Q.** And the “Inhibition (%)” value ([2]; 30 mg iv × 7)?
**A.** 88.13%

**Q.** What about the “Weight (tumor)” value ([2]; 30 mg iv × 7) of the same compound?
**A.** 0.4 ± 0.15 g

**Q.** What about the “Colony No.” value (melanoma (B16); Table 4) of the same compound?
**A.** 18.80 ± 8.50

**Q.** And the “Inhibition (%)” value (melanoma (B16); Table 4)?
**A.** 95.90%

**Q.** And the “Colony No.” value (melanoma (B16); Table 5)?
**A.** 8.0 ± 6.22

**Q.** And the “Inhibition (%)” value (melanoma (B16); Table 5)?
**A.** 98.67%

**Q.** What about the “Colony No.” value (melanoma (B16); Table 6) of the same compound?
**A.** 0

**Q.** And the “Inhibition (%)” value (melanoma (B16); Table 6)?
**A.** 100%

**Q.** Which “Inhibition (%)” value (sarcoma (S-180); 2 mg/kg ip × 2 (1, 3)) does the source give for `O=C1c2c(O)ccc(O)c2C(=O)c2c(NCCNCCO)ccc(NCCNCCO)c21` [DHAD, mitoxantrone] here?
**A.** 50%

**Q.** For `CN(C)/N=N/c1[nH]cnc1C(N)=O` [DTIC, dacarbazine], which Inhibition (%) [3] is on record?
**A.** 94.94%

**Q.** And the Tumor [3]?
**A.** 0.18 ± 0.04

**Q.** With `COC(=O)C[C@](O)(CCC(C)(C)O)C(=O)O[C@@H]1C(OC)=C[C@]23CCCN2CCc2cc4c(cc2[C@H]13)OCO4` [HRTN, harringtonine] as the compound, how does the Leucocyte number (leukocyte [4]; time 0) read?
**A.** 60 × 100/mm^3

**Q.** And the Leucocyte number (leukocyte [4]; time 3)?
**A.** 75 × 100/mm^3

**Q.** What about the Leucocyte number (leukocyte [4]; time 6) of the same compound?
**A.** 65 × 100/mm^3

**Q.** And the Leucocyte number (leukocyte [4]; time 9)?
**A.** 50 × 100/mm^3

**Q.** And the Leucocyte number (leukocyte [4]; time 12)?
**A.** 44 × 100/mm^3

**Q.** What about the Leucocyte number (leukocyte [4]; time 15) of the same compound?
**A.** 43 × 100/mm^3

**Q.** What about the Leucocyte number (leukocyte [4]; time 18) of the same compound?
**A.** 49 × 100/mm^3

**Q.** And the Leucocyte number (leukocyte [4]; time 21)?
**A.** 53 × 100/mm^3

**Q.** And the Leucocyte number (leukocyte [4]; time 24)?
**A.** 56 × 100/mm^3

**Q.** Which “Inhibition (%)” value (sarcoma (S-180); 1.5 mg/kg ip × 2 (1, 3)) does the source give for `CO[C@@]12[C@H](COC(N)=O)C3=C(C(=O)C(C)=C(N)C3=O)N1C[C@@H]1N[C@@H]12` [Mitomycin, mitomycin] here?
**A.** 39.4%

**Q.** What does the source list for `CCCCCC/C=C\CCCCCCCC(=O)O[C@H](C)[C@H](C)OC(=O)CCCCCCCCC/C=C/CCCCCC` [coixenolide]?
**A.** Growth of mouse Ehrlich ascites tumor ([5]; Ukita 1961): inhibit the growth; Anti-tumor activity ([5]; pure compound): strong anti-tumor activity
